DBAASP
≈ marks a conversion by molar mass, not a printed value. One block for each compound: values may come before it.

How the values were obtained:
Assay in all cases: ≥ marks a high value that may be exact or a test limit, other limits are often not marked, values filed in µg/mL are converted to µM
Bacillus subtilis 168 = test system: Bacillus subtilis 168
[1] = test system: Candida albicans F7-39/IDE99
Escherichia coli B = test system: Escherichia coli B
[2] = test system: Micrococcus luteus CCM 144
[3] = test system: Pseudomonas aeruginosa ATCC 27853
Pseudomonas aeruginosa = test system: Pseudomonas aeruginosa
Staphylococcus aureus 1 = test system: Staphylococcus aureus 1
[4] = test system: Staphylococcus aureus ATCC 43300
Staphylococcus aureus = test system: Staphylococcus aureus
[5] = test system: Staphylococcus epidermidis
[6] = test system: Bacillus subtilis ATCC 6633
[7] = test system: Escherichia coli ATCC 25922
Escherichia coli O111 = test system: Escherichia coli O111
[8] = test system: Staphylococcus aureus FDA 209P
[9] = test system: Bacillus subtilis KCTC 3038
[10] = test system: Candida albicans ATCC 10231
[11] = test system: Cryptococcus neoformans ATCC 34881
[12] = test system: Enterococcus faecalis ATCC 29212
[13] = test system: Escherichia coli ATCC 27325
[14] = test system: Micrococcus luteus ATCC 10240
[15] = test system: Saccharomyces cerevisiae ATCC 44774
[16] = test system: Salmonella typhimurium KCTC 2370
[17] = test system: Staphylococcus aureus ATCC 15752
Alternaria alternata = test system: Alternaria alternata
Botrytis cinerea = test system: Botrytis cinerea
Cladosporium herbarum = test system: Cladosporium herbarum
[18] = test system: Clavibacter michiganensis subsp. michiganensis DSM 46294
[19] = test system: Pectobacterium carotovorum subsp. carotovorum DSM 30168
[20] = test system: Pseudomonas corrugata DSM 7228
[21] = test system: Pseudomonas syringae pv. syringae DSM 10604
[22] = test system: Pseudomonas syringae pv. tomato DC3000
[23] = test system: Staphylococcus aureus 90857
[24] = test system: Xanthomonas vesicatoria DSM 50861
[25] = test system: Cronobacter sakazakii DPC 6440
[26] = test system: Listeria monocytogenes LO28
Bacillus cereus AS1.126 = test system: Bacillus cereus AS1.126
[27] = test system: Enterococcus faecalis CGMCC 1.595
[28] = test system: Enterococcus faecium CGMCC 1.2334
Escherichia coli AS1.349 = test system: Escherichia coli AS1.349
[29] = test system: Lactococcus lactis AS1.1690
[30] = test system: Pseudomonas aeruginosa CGMCC 1.860
[31] = test system: Staphylococcus aureus AS1.72

MIC (Bacillus subtilis 168): 7 µM (≈ 12.1 µg/mL) | MIC [1]: 11 µM (≈ 19 µg/mL) | MIC (Escherichia coli B): 3.7 µM (≈ 6.41 µg/mL) | MIC [2]: 3 µM (≈ 5.19 µg/mL) | MIC [3]: 4.5 µM (≈ 7.79 µg/mL) | MIC (Pseudomonas aeruginosa): 9.3 µM (≈ 16.1 µg/mL) | MIC (Staphylococcus aureus 1): 5.2 µM (≈ 9 µg/mL) | MIC [4]: 9 µM (≈ 15.6 µg/mL) | MIC (Staphylococcus aureus): 10 µM (≈ 17.3 µg/mL) | MIC [5]: 5 µM (≈ 8.66 µg/mL)
Compound: CC[C@H](C)[C@H](NC(=O)CN)C(=O)N[C@@H](CCSC)C(=O)N[C@@H](CO)C(=O)N[C@@H](CO)C(=O)N[C@@H](CC(C)C)C(=O)N[C@@H](CCSC)C(=O)N[C@@H](CCCCN)C(=O)N[C@@H](CCCCN)C(=O)N[C@@H](CC(C)C)C(=O)N[C@@H](C)C(=O)N[C@@H](CCCCN)C(=O)N[C@H](C(=O)N[C@H](C(=O)N[C@@H](C)C(=O)N[C@@H](CCCCN)C(N)=O)[C@@H](C)CC)[C@@H](C)CC [GIMSSLMKKLAKIIAK]

MIC [6]: 20.8 µM (≈ 64 µg/mL) | MIC [7]: 2.66 µM (≈ 8.19 µg/mL) | MIC (Escherichia coli O111): 2.66 µM (≈ 8.19 µg/mL) | MIC [8]: 5.35 µM (≈ 16.5 µg/mL)
Compound: CC[C@H](C)[C@H](NC(=O)[C@@H](NC(=O)CN)C(C)C)C(=O)N[C@H](C(=O)N[C@@H](CC(=O)O)C(=O)N[C@@H](C)C(=O)N[C@@H](CC(C)C)C(=O)N[C@@H](CCCCN)C(=O)NCC(=O)N[C@@H](C)C(=O)N[C@@H](C)C(=O)N[C@@H](CCCCN)C(=O)N[C@H](C(=O)N[C@H](C(=O)N[C@@H](C)C(=O)N[C@@H](C)C(=O)N[C@@H](CCC(=O)O)C(=O)N[C@@H](CC(C)C)C(=O)N[C@@H](CC(C)C)C(=O)N[C@@H](CCCN=C(N)N)C(=O)N[C@@H](CCCCN)C(=O)N[C@@H](C)C(=O)N[C@@H](Cc1cnc[nH]1)C(=O)N[C@H]1CSSC[C@@H](C(=O)O)NC(=O)[C@H](CO)NC(=O)[C@H](CC(N)=O)NC(=O)[C@H]([C@@H](C)O)NC(=O)[C@H](CC(C)C)NC(=O)[C@H](CCCCN)NC1=O)C(C)C)[C@@H](C)O)[C@@H](C)O [GVITDALKGAAKTVAAELLRKAHCKLTNSC]

MIC [9]: ≥ 37.5 µM | MIC [10]: > 37.5 µM | MIC [11]: ≥ 37.5 µM | MIC [12]: > 37.5 µM | MIC [13]: ≥ 37.5 µM | MIC [14]: ≥ 37.5 µM | MIC [3]: > 37.5 µM | MIC [15]: ≥ 37.5 µM | MIC [16]: ≥ 37.5 µM | MIC [17]: ≥ 37.5 µM
Compound: CC(C)[C@H](NC(=O)CNC(=O)[C@H](CCC(N)=O)NC(=O)[C@@H](NC(=O)[C@@H](NC(=O)[C@@H]1CCCN1C(=O)[C@H](CCCN=C(N)N)NC(=O)[C@@H](NC(=O)CNC(=O)[C@@H](N)CCCN=C(N)N)C(C)C)C(C)C)C(C)C)C(=O)N[C@@H](CCCCN)C(=O)N[C@@H](CCC(=O)O)C(=O)N[C@@H](CCCCN)C(=O)N[C@H](C(=O)N[C@@H](CCCN=C(N)N)C(=O)O)C(C)C [RGVRPVVQGVKEKVR]

MIC (Alternaria alternata): ≥ 65.7 µM | MIC (Botrytis cinerea): ≥ 65.7 µM | MIC (Cladosporium herbarum): 26.3 µM (≈ 40 µg/mL) | MIC [18]: 6.57 µM (≈ 9.99 µg/mL) | MIC [19]: 26.3 µM (≈ 40 µg/mL) | MIC [20]: 26.3 µM (≈ 40 µg/mL) | MIC [21]: 6.57 µM (≈ 9.99 µg/mL) | MIC [22]: 6.57 µM (≈ 9.99 µg/mL) | MIC [23]: 1.5 µM (≈ 2.28 µg/mL) | MIC [24]: 3.29 µM (≈ 5 µg/mL)
Compound: CC(C)C[C@H](NC(=O)[C@H](CC(C)C)NC(=O)[C@H](CCCCN)NC(=O)[C@H](CCCCN)NC(=O)[C@H](CC(C)C)NC(=O)[C@H](CC(C)C)NC(=O)[C@H](CCCCN)NC(=O)[C@H](CCCCN)NC(=O)[C@H](CC(C)C)NC(=O)[C@H](C)NC(=O)[C@H](CCCCN)NC(=O)[C@H](CC(C)C)NC(=O)[C@@H](N)CC(C)C)C(N)=O [LLKALKKLLKKLL]

MIC [25]: ≥ 78.1 µM | MIC [26]: 19.5 µM (≈ 36.4 µg/mL)
Compound: CC[C@H](C)[C@H](NC(=O)[C@@H](N)Cc1c[nH]c2ccccc12)C(=O)N[C@@H](CCC(N)=O)C(=O)N1CCC[C@H]1C(=O)N[C@@H](CCCCN)C(=O)N[C@H](C(=O)N[C@@H](CCCCN)C(=O)N[C@H](C(=O)N[C@@H](C)C(=O)N1CCC[C@H]1C(=O)N[C@@H](Cc1ccc(O)cc1)C(=O)N[C@H](C(=O)N[C@@H](CCCN=C(N)N)C(=O)N[C@@H](Cc1ccc(O)cc1)C(=O)N[C@@H](CC(C)C)C(=O)O)C(C)C)C(C)C)[C@@H](C)O [WIQPKTKVAPYVRYL]

MIC (Bacillus cereus AS1.126): ≥ 100 µM | MIC [27]: ≥ 100 µM | MIC [28]: ≥ 100 µM | MIC (Escherichia coli AS1.349): ≥ 100 µM | MIC [29]: ≥ 100 µM | MIC [30]: ≥ 100 µM | MIC [31]: ≥ 100 µM
Compound: NC(N)=NCCC[C@H](NC(=O)[C@H](Cc1cnc[nH]1)NC(=O)[C@H](Cc1c[nH]c2ccccc12)NC(=O)[C@H](Cc1ccccc1)NC(=O)[C@H](CCCN=C(N)N)NC(=O)[C@@H](N)CCCN=C(N)N)C(=O)O [RRFWHR]

MIC [25]: ≥ 78.1 µM | MIC [26]: ≥ 39.1 µM
Compound: CC[C@H](C)[C@H](NC(=O)[C@@H](N)Cc1c[nH]c2ccccc12)C(=O)N[C@@H](CCC(N)=O)C(=O)N1CCC[C@H]1C(=O)N[C@@H](CCCCN)C(=O)N[C@H](C(=O)N[C@@H](CCCCN)C(=O)N[C@H](C(=O)N[C@H](C(=O)N1CCC[C@H]1C(=O)N[C@@H](C)C(=O)N[C@H](C(=O)N[C@@H](CCCN=C(N)N)C(=O)N[C@@H](Cc1ccc(O)cc1)C(=O)N[C@@H](CC(C)C)C(=O)O)C(C)C)[C@@H](C)CC)C(C)C)[C@@H](C)O [WIQPKTKVIPAVRYL]
